# How the values were obtained:
# [1] = target: Vasopressin V1a receptor (Homo sapiens, UniProt P37288); experiment: Antagonist activity at human vasopressin V1A receptor; format: functional
# [2] = target: T1, Oxytocin receptor (Homo sapiens, UniProt P30559); experiment: Antagonist activity at human oxytocin receptor expressed in CHO cells by beta lactamase assay; format: functional, cell-based
# T1 sequence (P30559 whole entry): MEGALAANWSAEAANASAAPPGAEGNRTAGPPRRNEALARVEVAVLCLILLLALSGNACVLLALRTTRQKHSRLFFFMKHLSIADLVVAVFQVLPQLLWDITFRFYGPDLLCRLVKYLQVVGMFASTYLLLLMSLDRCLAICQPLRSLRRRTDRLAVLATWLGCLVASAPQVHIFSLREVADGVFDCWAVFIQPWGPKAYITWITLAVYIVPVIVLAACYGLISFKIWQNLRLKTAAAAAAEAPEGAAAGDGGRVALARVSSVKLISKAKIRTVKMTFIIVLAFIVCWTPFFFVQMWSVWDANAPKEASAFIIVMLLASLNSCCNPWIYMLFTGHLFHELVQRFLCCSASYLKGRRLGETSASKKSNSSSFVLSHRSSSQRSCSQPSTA
# [3] = target: Vasopressin V2 receptor (Homo sapiens) (UniProt P30518); experiment: Antagonist activity at human vasopressin V2 receptor at 10 uM; format: functional; parameters: scale not given: the % may be the effect or the level left
# [4] = target: T2, Vasopressin V1b receptor (Homo sapiens) (UniProt P47901); experiment: Antagonist activity at human vasopressin V1B receptor at 10 uM; format: functional; parameters: scale not given: the % may be the effect or the level left
# T2 sequence (whole entry): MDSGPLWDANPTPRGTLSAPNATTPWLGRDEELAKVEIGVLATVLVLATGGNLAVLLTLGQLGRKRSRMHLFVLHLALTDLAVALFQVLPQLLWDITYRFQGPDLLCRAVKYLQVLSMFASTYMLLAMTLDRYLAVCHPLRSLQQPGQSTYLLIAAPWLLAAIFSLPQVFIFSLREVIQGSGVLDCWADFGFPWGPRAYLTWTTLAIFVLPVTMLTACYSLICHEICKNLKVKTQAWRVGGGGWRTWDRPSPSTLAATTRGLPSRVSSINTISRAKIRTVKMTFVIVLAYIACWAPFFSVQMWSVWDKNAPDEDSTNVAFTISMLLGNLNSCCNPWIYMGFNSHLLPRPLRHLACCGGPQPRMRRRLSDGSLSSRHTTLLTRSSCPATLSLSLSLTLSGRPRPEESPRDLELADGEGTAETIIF
# Sequence of Vasopressin V1a receptor (P37288 whole entry): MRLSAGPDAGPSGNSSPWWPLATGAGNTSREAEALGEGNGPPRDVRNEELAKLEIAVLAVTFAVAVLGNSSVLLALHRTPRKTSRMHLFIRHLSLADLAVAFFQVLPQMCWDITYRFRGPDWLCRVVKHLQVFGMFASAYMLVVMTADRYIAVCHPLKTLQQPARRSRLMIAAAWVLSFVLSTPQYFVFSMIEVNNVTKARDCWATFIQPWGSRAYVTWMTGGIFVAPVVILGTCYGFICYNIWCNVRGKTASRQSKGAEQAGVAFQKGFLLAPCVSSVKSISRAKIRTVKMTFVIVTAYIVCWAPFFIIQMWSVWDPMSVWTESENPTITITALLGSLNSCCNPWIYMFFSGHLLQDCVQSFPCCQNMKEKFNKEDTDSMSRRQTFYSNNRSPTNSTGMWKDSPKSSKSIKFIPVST
# Sequence of Vasopressin V2 receptor (Homo sapiens) (P30518 whole entry): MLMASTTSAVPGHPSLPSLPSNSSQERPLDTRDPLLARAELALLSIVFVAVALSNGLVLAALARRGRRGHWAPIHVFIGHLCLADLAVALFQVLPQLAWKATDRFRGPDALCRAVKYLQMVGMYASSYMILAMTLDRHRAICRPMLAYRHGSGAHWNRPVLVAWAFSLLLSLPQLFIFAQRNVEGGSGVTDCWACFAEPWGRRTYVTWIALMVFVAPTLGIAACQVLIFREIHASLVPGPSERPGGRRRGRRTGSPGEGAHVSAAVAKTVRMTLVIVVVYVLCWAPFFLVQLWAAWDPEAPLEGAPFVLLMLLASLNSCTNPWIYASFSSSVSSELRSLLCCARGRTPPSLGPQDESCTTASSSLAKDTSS
SMILES,Ki [1] [nM],Ki [2] [nM],Activity [3] [%],Activity [4] [%]
COc1ccc(N(C)C(=O)N2CC(Oc3cccc(F)c3C)C2)cn1,> 4200,159,–,–
COc1ccc(N(C)C(=O)N2CC(Oc3ccc(F)cc3Cl)C2)cn1,779,67.2,–,–
COc1ccc(N(C)C(=O)N2CC(Oc3cc(F)cc(F)c3C)C2)cn1,> 4200,237,–,–
COc1ccc(N(C)C(=O)N2CC(Oc3ccc(F)cc3C)C2)cn1,1300,112,–,–
CCN(C(=O)N1CC(Oc2ccc(F)cc2Cl)C1)c1ccc(OC)nc1,–,48.4,–,–

# Compounds with a lower Ki [2], results first:
Ki [1] [nM],Ki [2] [nM],Activity [3] [%],Activity [4] [%],SMILES
> 4200,19.7,–,–,COc1ccc(-n2c(C)nnc2N2CC(Oc3cccc(F)c3C)C2)cn1
–,36.7,–,–,CCN(C(=O)N1CC(Oc2cc(F)cc(F)c2C)C1)c1ccc(OC)nc1
–,43,–,–,CCN(C(=O)N1CC(Oc2ccc(F)cc2C)C1)c1ccc(OC)nc1
> 4200,13.9,< 10,< 10,CCN(C(=O)N1CC(Oc2cccc(F)c2C)C1)c1ccc(OC)nc1
> 4200,41.4,–,–,COc1ccc(-n2c(C)nnc2N2CC(Oc3cc(F)cc(F)c3C)C2)cn1

# — ChEMBL document CHEMBL1155414, “Identification of a urea bioisostere of a triazole oxytocin antagonist” (Bioorg Med Chem Lett, 2010)
